# Measurements reported in PubChem BioAssay AID1963966 (Molecular Pharmacology Branch, DTP, NCI, 2024).
# Test system: 935938-334-R-J1-PDC spheroids with HUVEC/MSC, viability
# Test: Anticancer human tumor 935938-334-R-J1-PDC patient-derived small intestine adenocarcinoma cell line growth inhibition [PI3K]
# Conditions: for IC50: curve of first compound; for viability, T/C: stronger effect = lower value
# How it was run: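 Spheroid viability read-out. Co-cultures contained the tumor line plus HUVEC and human MSCs. Each agent was paired with a PI3K inhibitor (inavolisib, alpelisib, duvelisib, copanlisib) across half-log dilutions starting at clinical Cmax, or at 10 microM when Cmax was unknown.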
# [1] = second compound 0.0316 µM, first compound 0.0316 µM
# [2] = second compound 0.0316 µM, first compound 0.1 µM
# [3] = second compound 0.0316 µM, first compound 0.316 µM
# [4] = second compound 0.0316 µM, first compound 1 µM
# [5] = second compound 0.0316 µM, first compound 3.16 µM
# [6] = second compound 0.0316 µM, first compound 10 µM
# [7] = second compound 0.1 µM, first compound 0.0316 µM
# [8] = second compound 0.1 µM, first compound 0.1 µM
# [9] = second compound 0.1 µM, first compound 0.316 µM
# [10] = second compound 0.1 µM, first compound 1 µM
# [11] = second compound 0.1 µM, first compound 3.16 µM
# [12] = second compound 0.1 µM, first compound 10 µM
# [13] = second compound 0.316 µM, first compound 0.0316 µM
# [14] = second compound 0.316 µM, first compound 0.1 µM
# [15] = second compound 0.316 µM, first compound 0.316 µM
# [16] = second compound 0.316 µM, first compound 1 µM
# [17] = second compound 0.316 µM, first compound 3.16 µM
# [18] = second compound 0.316 µM, first compound 10 µM
# [19] = second compound 1 µM, first compound 0.0316 µM
# [20] = second compound 1 µM, first compound 0.1 µM
# [21] = second compound 1 µM, first compound 0.316 µM
# [22] = second compound 1 µM, first compound 1 µM
# [23] = second compound 1 µM, first compound 3.16 µM
# [24] = second compound 1 µM, first compound 10 µM
# [25] = second compound 3.16 µM, first compound 0.0316 µM
# [26] = second compound 3.16 µM, first compound 0.1 µM
# [27] = second compound 3.16 µM, first compound 0.316 µM
# [28] = second compound 3.16 µM, first compound 1 µM
# [29] = second compound 3.16 µM, first compound 3.16 µM
# [30] = second compound 3.16 µM, first compound 10 µM
# [31] = second compound 10 µM, first compound 0.0316 µM
# [32] = second compound 10 µM, first compound 0.1 µM
# [33] = second compound 10 µM, first compound 0.316 µM
# [34] = second compound 10 µM, first compound 1 µM
# [35] = second compound 10 µM, first compound 3.16 µM
# [36] = second compound 10 µM, first compound 10 µM
# 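Further: compound exposure lasted seven days before viability was read.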
# 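Wherever viability, T/C is given: percent of vehicle DMSO treated spheroid viability so 100% = untreated.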
smiles,measurement,setting,value
CC(Cn1ccc(-c2ccc(C#N)c(Cl)c2)n1)NC(=O)c1cc(C(C)O)[nH]n1 (centres undefined) + CC(Nc1ncnc2nc[nH]c12)c1cc2cccc(Cl)c2c(=O)n1-c1ccccc1,IC50,second compound 0.0316 µM,> 10000 nM
same,IC50,second compound 0.1 µM,> 10000 nM
same,IC50,second compound 0.316 µM,> 10000 nM
same,IC50,second compound 1 µM,> 10000 nM
same,IC50,second compound 3.16 µM,> 10000 nM
same,IC50,second compound 10 µM,> 10000 nM
same,"viability, T/C",[1],98.6%
same,"viability, T/C",[2],93.4%
same,"viability, T/C",[3],97.3%
same,"viability, T/C",[4],111%
same,"viability, T/C",[5],117%
same,"viability, T/C",[6],108%
same,"viability, T/C",[7],124%
same,"viability, T/C",[8],85.2%
same,"viability, T/C",[9],88.7%
same,"viability, T/C",[10],99%
same,"viability, T/C",[11],93.9%
same,"viability, T/C",[12],113%
same,"viability, T/C",[13],94.3%
same,"viability, T/C",[14],116%
same,"viability, T/C",[15],116%
same,"viability, T/C",[16],98.2%
same,"viability, T/C",[17],74.5%
same,"viability, T/C",[18],102%
same,"viability, T/C",[19],110%
same,"viability, T/C",[20],105%
same,"viability, T/C",[21],128%
same,"viability, T/C",[22],102%
same,"viability, T/C",[23],103%
same,"viability, T/C",[24],96%
same,"viability, T/C",[25],94.5%
same,"viability, T/C",[26],77.3%
same,"viability, T/C",[27],105%
same,"viability, T/C",[28],91.2%
same,"viability, T/C",[29],94.6%
same,"viability, T/C",[30],104%
same,"viability, T/C",[31],79.7%
same,"viability, T/C",[32],69.8%
same,"viability, T/C",[33],82%
same,"viability, T/C",[34],68.4%
same,"viability, T/C",[35],87.6%
same,"viability, T/C",[36],97.8%
Cn1nccc1Nc1nccc(-c2ccn(C(CO)c3ccc(Cl)c(F)c3)c(=O)c2)n1 (centres undefined) + CC(Nc1ncnc2nc[nH]c12)c1cc2cccc(Cl)c2c(=O)n1-c1ccccc1,IC50,second compound 0.0316 µM,767 nM
same,IC50,second compound 0.1 µM,1460 nM
same,IC50,second compound 0.316 µM,1300 nM
same,IC50,second compound 1 µM,1280 nM
same,IC50,second compound 3.16 µM,529 nM
same,IC50,second compound 10 µM,143 nM
same,"viability, T/C",[1],85.2%
same,"viability, T/C",[2],79.2%
same,"viability, T/C",[3],66.3%
same,"viability, T/C",[4],46.7%
same,"viability, T/C",[5],31.1%
same,"viability, T/C",[6],38.6%
same,"viability, T/C",[7],99.6%
same,"viability, T/C",[8],91.1%
same,"viability, T/C",[9],73%
same,"viability, T/C",[10],54.4%
same,"viability, T/C",[11],41.4%
same,"viability, T/C",[12],33.6%
same,"viability, T/C",[13],87.9%
same,"viability, T/C",[14],101%
same,"viability, T/C",[15],63.2%
same,"viability, T/C",[16],56.2%
same,"viability, T/C",[17],41.1%
same,"viability, T/C",[18],28.3%
same,"viability, T/C",[19],96.2%
same,"viability, T/C",[20],81.3%
same,"viability, T/C",[21],57.1%
same,"viability, T/C",[22],61%
same,"viability, T/C",[23],39.6%
same,"viability, T/C",[24],27.9%
same,"viability, T/C",[25],74.1%
same,"viability, T/C",[26],77.8%
same,"viability, T/C",[27],55.3%
same,"viability, T/C",[28],43.1%
same,"viability, T/C",[29],32.4%
same,"viability, T/C",[30],33.6%
same,"viability, T/C",[31],63.4%
same,"viability, T/C",[32],53.5%
same,"viability, T/C",[33],43.8%
same,"viability, T/C",[34],33.6%
same,"viability, T/C",[35],32.6%
same,"viability, T/C",[36],25.3%
